Source: patent publication US20020128193A1, “Retro-inverso prosaposin-derived peptides and use thereof” (priority 1999, published 2002)
In brackets after ≈: the same amount, converted by molar mass. Where two headings read alike, the source gives them in different places. Non-standard residues stand in square brackets, D forms with d. Residues, ends and D or L forms follow the SMILES beside them. No end group written: not given here.

What was measured:
[1] = test system: NS20Y neuroblastoma cells; conditions: for Bioactive?: neurite outgrowth, 0-8 ng/ml peptide, 24 hours
Procedure: NS20Y neuroblastoma cells were grown in DMEM containing 10% fetal calf serum (FCS). Cells were removed with trypsin and plated in 30 mm petri dishes onto glass coverslips. […] Cells were cultured for an additional 24 hours, washed with PBS and fixed with Bouin's solution (saturated aqueous picric acid/formalin/acetic acid 15:5:1) for 30 minutes. Fixative was removed with PBS and neurite outgrowth was scored under a phase contrast microscope. […] At least 200 cells were scored in different portions of each dish to determine the percentage of neurite bearing cells and assays were performed in duplicate.
The ED50 value is defined as the half maximal concentration for maximal neurite outgrowth and neural protection in ng/ml.

[2] = Localization and integrity of 125I-peptide D8 in organs after intramuscular or oral administration; assay type: in vivo, Sprague-Dawley rat; conditions: for D8 in tissue: Brain / D8 in tissue: Eyes / D8 in tissue: Heart / D8 in tissue: Kidney 1 / D8 in tissue: Kidney 2 / D8 in tissue: Liver / D8 in tissue: Lung / D8 in tissue: Muscle / D8 in tissue: Sciatic Nerve / D8 in tissue: Spinal Cord / D8 in tissue: Spleen: 200 μg/kg, rat; for crossing of the blood brain barrier: iodinated D8, rat, found in brain after oral administration
Procedure: Peptide D8 (SEQ ID NO: 4) was iodinated with ^125I according to the manufacturer's instructions (Pierce Chemical Co., Rockford, Ill.), and 200 μg/kg in PBS was injected intramuscularly into, or administered orally to, an adult male Sprague-Dawley rat. […] Results below give ng/g of […] in each tissue after conversion of cpm to nanograms (Table 2). All organs studied contained 90% or greater intact D8. The trophic concentration was estimated to be about 0.2 ng/g over 20 min.

EAE rats = experiment: Reversal of demyelination in experimental allergic encephalomyelitis (EAE) rat model; assay type: in vivo, Lewis rats; conditions: oral D8 100 μg/kg daily
Procedure: Experimental allergic encephalomyelitis (EAE) is a rat model of human multiple sclerosis (MS). In rats, EAE is induced by injecting foreign protein (guinea pig spinal cord) which results in inflammation and demyelination in white matter 11 days later.
EAE was induced in Lewis rats by injection of an emulsion of guinea pig spinal cord and complete Freund's adjuvant (CFA). At day 12-14, when weakness was evident, treatment with D8 (SEQ ID NO: 4) was begun (100 μg/kg orally in PBS via a stomach tube) and continued for 16 days every day. Six rats were injected with vehicle only. The number and size of demyelinating lesions (plaques) in the spinal cord per mm^2 was scored at […].
After 16 days of oral treatment with D8 (100 μg/kg/day) beginning after the onset of EAE at 14 days, spinal cord lesions were examined and the number of remyelinated axons per lesion were counted.

[3] = test system: choline acetyltransferase; conditions: neuroblastoma cells in vitro; cited from earlier work
[4] = test system: neuroblastoma cells and mouse cerebellar explants; conditions: cited from earlier work
neuroblastoma cells = neuroblastoma cells in vitro; cited from earlier work
myelination = conditions: cited from earlier work
[5] = half maximal concentration for maximal neurite outgrowth and neural protection, NS20Y cells

CC(C)C[C@@H](N)C(=O)N[C@H](CC(C)C)C(=O)N[C@H](CCC(=O)O)C(=O)N[C@H](CCC(=O)O)C(=O)N[C@H](CC(N)=O)C(=O)N[C@H](CC(N)=O)C(=O)N[C@H](CC(=O)O)C(=O)N[C@H](CC(C)C)C(=O)O [Peptide D8, D-leu-D-leu-D-glu-D-glu-D-asn-D-asn-D-asp-D-leu] (HELM PEPTIDE1{[dL].[dL].[dE].[dE].[dN].[dN].[dD].[dL]}$$$$V2.0; N-terminus and C-terminus assumed)
ED50 [1]: 0.01 ng/mL (≈ 0.0104 nM)
D8 in tissue: Brain ([2]; intramuscular, 20 min): 1.00 ng/g
D8 in tissue: Eyes ([2]; intramuscular, 20 min): 13.9 ng/g
D8 in tissue: Heart ([2]; intramuscular, 20 min): 9.8 ng/g
D8 in tissue: Kidney 1 ([2]; intramuscular, 20 min): 395 ng/g
D8 in tissue: Kidney 2 ([2]; intramuscular, 20 min): 405 ng/g
D8 in tissue: Liver ([2]; intramuscular, 20 min): 8.0 ng/g
D8 in tissue: Lung ([2]; intramuscular, 20 min): 43.0 ng/g
D8 in tissue: Muscle ([2]; intramuscular, 20 min): 19.7 ng/g
D8 in tissue: Sciatic Nerve ([2]; intramuscular, 20 min): 36.7 ng/g
D8 in tissue: Spinal Cord ([2]; intramuscular, 20 min): 2.90 ng/g
D8 in tissue: Spleen ([2]; intramuscular, 20 min): 41.7 ng/g
crossing of the blood brain barrier [2]: can cross the blood brain barrier
crossing of the blood brain barrier ([2]; listed as SEQ ID NO: 4): crosses the blood brain barrier
D8 in tissue: Brain ([2]; oral, 25 min): 5.62 ng/g
D8 in tissue: Eyes ([2]; oral, 25 min): 4.66 ng/g
D8 in tissue: Heart ([2]; oral, 25 min): 3.26 ng/g
D8 in tissue: Kidney 1 ([2]; oral, 25 min): 201 ng/g
D8 in tissue: Kidney 2 ([2]; oral, 25 min): 217 ng/g
D8 in tissue: Liver ([2]; oral, 25 min): 5.6 ng/g
D8 in tissue: Lung ([2]; oral, 25 min): 526 ng/g
D8 in tissue: Muscle ([2]; oral, 25 min): 3.2 ng/g
D8 in tissue: Sciatic Nerve ([2]; oral, 25 min): 3.3 ng/g
D8 in tissue: Spinal Cord ([2]; oral, 25 min): 2.15 ng/g
D8 in tissue: Spleen ([2]; oral, 25 min): 4.9 ng/g
weight loss versus control animals (EAE rats): no difference in weight loss

CEFLVKEVTKLIDNNKTEKEIL [Peptide 22-mer, 22-mer peptide consisting of amino acids 8-29 of human saposin C]
choline acetyltransferase activity [3]: stimulates choline acetyltransferase activity
neurite outgrowth ([4]; in both neuroblastoma cells and mouse cerebellar explants): stimulates neurite outgrowth
cell death (neuroblastoma cells): prevents cell death

LLEETANNDL [Peptide D5]
ED50 [1, 5]: 0.2 ng/mL
Bioactive? ([1]; NS20Y cells): YES

TXLIDNNATEEILY, X=D-alanine (T[dA]LIDNNATEEILY) [Peptide D1]
ED50 [1, 5]: 1.00 ng/mL
Bioactive? ([1]; NS20Y cells): YES

YKEVTKLIDNNKTEKEIL [Peptide 18-mer]
neurite outgrowth [4]: promotes neurite outgrowth

YLIEETANNDLAT [Peptide D2]
ED50 [1, 5]: 0.8 ng/mL
Bioactive? ([1]; NS20Y cells): YES

YLLEETANNDL [Peptide D4]
ED50 [1, 5]: 0.4 ng/mL
Bioactive? ([1]; NS20Y cells): YES

YLLEETANNDLLAT [Peptide D3]
ED50 [1, 5]: 0.4 ng/mL
Bioactive? ([1]; NS20Y cells): YES

YSLEKETKNNDLL [Peptide D6]
ED50 [1, 5]: 0.27 ng/mL
Bioactive? ([1]; NS20Y cells): YES

B1: saposin C: glycoprotein generated by proteolytic processing of prosaposin (protein, UniProt P07602 311-390, looked up)
Saposin-C: SDVYCEVCEFLVKEVTKLIDNNKTEKEILDAFDKMCSKLPKSLSEECQEVVDTYGSSILSILLEEVSPELVCSMLHLCSG
modifications: Saposin-C
notes: glycoprotein generated by proteolytic processing of prosaposin
myelination (myelination): promote increased myelination
neurite outgrowth [4]: stimulate neurite outgrowth
